Test [1] concerns protease of hake flesh with jellied condition. Kind of test: Inhibition of protease in aqueous extract of hake meat with jellied condition (urea-denatured hemoglobin substrate, Folin method). It is filed as biochemical. The procedure: North Pacific hake (Merluccius products) on which the sporosa were parasitic was minced and homogenized with two volumes of water. After standing for 2 hours, the homogenate was centrifuged (15,000 xg, 20 minutes) under cooling condition, and the supernatant was dialyzed against tap water for 24 hours. The residual liquid remaining after the dialysis was heated at 50° C. for 20 minutes. The resulting precipitate was removed under cooling by centrifuge (15,000 xg, 30 minutes). The supernatant liquid was designated an aqueous extract of fish meat with jellied condition.
Separately, 3 ml of Mclvaine buffer solution (pH=3) was added to 1 ml of urea-denatured bovine hemoglobin (at a concentration of 4%) to prepare a substrate solution. 1 ml of a 1:1 mixture of the above obtained extract and a solution of various TPI was added to the above prepared substrate solution. The resulting mixture was incubated at 40° C. for 5 minutes. Thereafter, 5 ml of a 5% trichloroacetic acid was added to the mixture to allow the reaction to stop. The reaction mixture was left to stand for 30 minutes at room temperature. Then, the mixture was filtered through a filter paper (Toyo filter paper No. 5C). 1 ml of the filtrate was colorometrically determined at a wave length of 660 mμ by a Folin method.
The protease inhibition ratio of various proteolytic activity of the TPI is expressed as the […] relative activity with respect to 100 of the activity of an extract prepared by adding water instead of the TPI solution. That is, [formula]

In test [2] the test system is proteolytic enzyme of yellowfin sole meat with jellied condition. Kind of test: Proteolytic enzyme activity of treated fish meat, yellowfin sole. In kind it is biochemical, yellowfin sole (Limanda aspera). From the text:
(§1) The quantity of the TPI added generally also depends upon the concentration of a proteolytic enzyme of fish meat contaminated with sporozoa. For example, North Pacific hake on which sporozoa are parasitic has a proteolytic enzyme activity of from a low level up to 30,000 units.
One hundred North Pacific frozen yellowfin sole containing a large number of spots of jellied condition in their muscles were thawed. These flatfish were gutted and the abdominal pores were washed.
During the dipping, the flatfish were irradiated with supersonic waves having a frequency of 18 KC for 10 minutes by using the same magnetostriction type supersonic wave oscillator as described in Example 2. Thereafter, the flatfish were drained. Then, these fish were dried at 15° C. in a low temperature dryer dehydromaster to obtain dried flatfish with salt.
350 Kg of the flatfish was headed and gutted and the meat was collected by means of a fish meat separator. […] As described in Example 9, this fish meat was twice soaked in cold water in a quantity two times that of the meat and drained to obtain 130 Kg of hydroextracted meat.
A solution of 0.6 g of antipain in 1 l of water was added to 60 Kg of each sample of the hydroextracted meat and the mixture was uniformly mixed. 10 Kg of the mixture was packed in a polyethylene bag to obtain a raw kneaded meat. A control was prepared in the same manner except that 1 l of water alone was added.
These raw kneaded meats were stored in a refrigerator at a temperature of from 4° to 5° C. for 24 hours. Thereafter, these meats were removed from the refrigerator. Then, 1.5 Kg of sodium chloride, 2.5 Kg of sugar, 4.0 Kg of starch, 1.2 Kg of mirin (sweet sake) and 0.5 Kg of sodium glutamate were added to 50 Kg of each of the raw kneaded meats, and the mixture was ground and formed into "itatuki-kamaboko" according to a conventional method.

The test system of test [3] is proteolytic enzyme of Pacific hake meat with jellied condition. Kind of test: Proteolytic enzyme activity of treated fish meat, Pacific hake. To be noted: Example 11; soaked 10 minutes in 200 l cold water with 100 g sodium hydrogensulfite; control 3,200 units. In kind it is biochemical.
Excerpt: as §1
The resulting fish was subjected to a fillet making machine to obtain skinless fillets. […] Each fillet sample was washed with water containing 0.05% of sodium sulfite. […]
Then, fish meat was collected from the thawed hake by means of a fish meat separator. […] The fish meat was soaked in cold water in a quantity two times that of the meat and drained, and it was again soaked in cold water in the same quantity and drained to obtain 105 Kg of hydroextracted meat. […]
The frozen testing and control kneaded meats thus obtained were thawed and subjected to a model estimation method of elasticity. In testing the elasticity, the kneaded meats are usually formed into a model product of a Japanese style fish meat paste and the model product is evaluated for quality.
200 Kg of the frozen fillet of the same Pacific hake as that described in Example 9 was thawed. […] Then, the fish meat was soaked in cold water in a quantity two times that of the meat and drained. […] The first portion was soaked in cold water in a quantity two times that of the meat and drained to obtain 50 Kg of hydroextracted meat as a control. […]

The mark [4] stands for this setting: concentration 0.01%, 40° C., 5 minutes, pH 3.
The mark [5] stands for this setting: concentration 0.002%, 40° C., 5 minutes, pH 3.
Where [6] appears, read: concentration 0.02%, 40° C., 5 minutes, pH 3.
The mark [7] stands for this setting: aqueous fish meat extract, pH 3, 5 min.

Starred links: 1 amine or outer side, 2 acyl side, 3 side chain; linkers in the order of their positions; H or OH if unused. Residues, ends and D or L forms follow the SMILES beside them. CO = O=C([*:1])[*:2]

For `N.N.O=S(=O)(O)OOS(=O)(=O)O` [ammonium persulfate], the “inhibition ratio (%)” value in test [1] (concentration 0.015%, 40° C., 5 minutes, pH 3) turned out to be 91.7%. As to `O=[N+]([O-])[O-].[K+]` [potassium nitrate, reference compound], the “inhibition ratio (%)” value in test [1] (setting [4]) is -1.4%. For `OO` [hydrogen peroxide], the “inhibition ratio (%)” value in test [1] (concentration 0.001%, 40° C., 5 minutes, pH 3) worked out at 86.8%; in test [1] (setting [4]), 100.0%. Turning to chymostatin [reference compound], the “inhibition ratio (%)” value in test [1] (setting [5]) is on record as 97.0%. Also, the “proteolytic enzyme activity of dried flatfish with salt whose muscle was softened and partially depressed” value in test [2] (Example 7, dipped 2 hours in 10% sodium chloride containing 0.01% chymostatin, supersonic waves 18 KC 10 minutes, muscles had 5,000 units before) was 120 units. Regarding `CC(=O)N[C@@H](CC(C)C)C(=O)N[C@@H](CC(C)C)C(=O)N[C@H](C=O)CCCNC(=N)N` [leupeptin, reference compound], the “inhibition ratio (%)” value in test [1] (setting [5]) is recorded as 99.0%. Take `O=S([O-])O.[Na+]` [sodium hydrogen sulfite]: the “inhibition ratio (%)” value in test [1] (setting [6]) was 96.1%. Further, the “proteolytic enzyme activity of hydroextracted meat” value in test [3] is listed as 840 units.

Regarding `[O]=[Ca]` [calcium oxide], the “inhibition ratio (%)” value in test [1] (setting [4]) is listed as 100.0%. The same measure, in the same setting: as for `OCl` [sodium hypochlorite], the figure is 87.8%; as for sodium chlorite, 100.0%.

In the case of `O=S([O-])[O-].[Na+].[Na+]` [sodium sulfite], the “inhibition ratio (%)” value in test [1] (setting [6]) was 93.4%. On to `[K+].[K+].[O]=[Cr](=[O])([O-])[O][Cr](=[O])(=[O])[O-]` [potassium dichromate, reference compound], for which, in test [1], the “inhibition of the activity of the protease produced by the sporozoa (in words)” value was “high inhibition”. For the same compound, in test [1] (setting [7]), the “inhibition ratio (%)” value is reported as 96.1%. For `O=C(OOC(=O)c1ccccc1)c1ccccc1` [benzoyl peroxide], in test [1] (setting [4]), the “inhibition ratio (%)” value stood at 82.3%. As to `CC(C)[C@H](NC(=O)[C@H](CCCNC(=N)N)NC(=O)N[C@@H](Cc1ccccc1)C(=O)O)C(=O)N[C@H](C=O)CCCNC(=N)N` [antipain] ({Phe-CO}-Arg-Val-Arg-aldehyde), the “inhibition ratio (%)” value in test [1] (setting [5]) is 72.9%. Moreover, in test [2] (Example 12, 0.6 g antipain in 1 l water per 60 Kg hydroextracted meat, control 1,140 units), the “proteolytic enzyme activity of raw kneaded meat” value was 980 units. Moreover, in test [2] (Example 12, after 24 hours at 4° to 5° C. and grinding with salt, sugar, starch, control 1,080 units), the “proteolytic enzyme activity of ground meat” value came out at 23 units. Consider `O=NO` [sodium nitrite], for which, in test [1] (setting [7]), the “inhibition ratio (%)” value is given as 90.2%. Regarding `O=S([O-])S(=O)(=O)[O-].[Na+].[Na+]` [sodium metabisulfite], the “inhibition ratio (%)” value in test [1] (concentration 0.05%, 40° C., 5 minutes, pH 3) turned out to be 96.2%. For the compound `N.O.O.O.O.O.O.O.O.O.O.O.O.O=S(=O)([O-])O.O=S(=O)([O-])[O-].[Al+3]` [ammonium alum], in test [1] (setting [4]), the “inhibition ratio (%)” value worked out at 89.8%. Still for that read-out and setting: as for `[Ca+2].[O-]Cl.[O-]Cl` [calcium hypochlorite], the figure is 98.1%; as for `[O][Cl+][O-]` [chlorine dioxide], 100.0%; as for `OCl` [hypochlorous acid], 88.5%.

These data come from US4284653A, “Process for handling and processing fish meat” (Nippon Suisan Kabushiki Kaisha, priority 1979, dated 1981).
